Holding throughout (type): in vivo, Wistar-strain male rats
The test system of one series is adjuvant arthritis. In words: Adjuvant arthritis experiment using rats. The settings on record: oral; for ED50: Rattus norvegicus, 168 h, once a day for 7 days. The protocol: Pharmacological Experiment 4 (Adjuvant arthritis experiment using rats)
0.6 mg/0.1 ml of Mycobacterium butyricum suspended in liquid paraffin were subcutaneously administered to the root of the tall of each of Wistar-strain male rats each weighing about 200 g (for the compound of Example 2 and comparative compound 1) or 240 g (for the compound of Example 24 and comparative compounds 4 and 5). […] The test compounds were orally administered once a day for 7 days to the selected rats in the predetermined doses, respectively, as indicated in the following Table 7. The inhibitory effect on the adjuvant arthritis was investigated referring, as a guide to the investigation, to the inhibition effect on swelling of the hind paws of each of the tested rats. In each of the tested rats, the inhibition rate was calculated by comparing the swelling volume ratio of the tested rat determined by the following formula with that of each rat of the control group (to which no test compounds were orally administered).
Swelling volume ratio = {(paw volume measured
26 days (*a) after the subcutaneous administration) -
(original or normal paw volume)}/{(paw volume
measured 19 days (*b) after the subcutaneous
administration) - (original or normal paw volume)} × 100
*a: 24 days later, for the compound of Example 24 and comparative
*b: 17 days later, for the compound of Example 24 and comparative

The subject of series [1] is Carrageenin-induced paw edema. In words: Carrageenin-induced paw edema experiment using rats. The settings on record: Rattus norvegicus, 3 h; for inhibition in vivo at 0.2 mg/kg / inhibition in vivo at 0.5 mg/kg / ED50: oral; for inhibition in vivo at 0.2 mg/kg / inhibition in vivo at 0.5 mg/kg: three hours after induction, vs control; for ED50: edema inhibition three hours after induction. The protocol: Pharmacological Experiment 1 (Carrageenin-induced paw edema experiment using rats)
There were used groups each consisting of seven Wistar-strain male rats each weighing about 150 g as test animals (subjects). One hour later than said administration, 0.1 ml of 1%λ-carrageenin was hypodermically injected to the paw of right hind leg of each of the test animals to induce the reaction. Thereafter, each test animal so injected was measured for its paw volume with the lapse of time.
The experimental results were indicated in terms of edema inhibition rates and effective doses (ED50) found by comparing the edema rate of each test rat with that of each rat of the control group (to which no test compounds were orally administered) three hours after having induced the reaction.
For orientation: In the carrageenan paw model, swelling and tenderness develop within hours.

The nature of series [2]: Gastric mucous membrane trouble experiment using rats. The settings on record: rat, in vivo. The protocol: (§1) Pharmacological Experiment 3 (Gastric mucous membrane trouble experiment using rats)
(§2) There were used groups each consisting of eight Wistar-strain male rats each weighing about 160 g as test animals (subjects). The test compounds were orally administered to the test animals in the predetermined doses, respectively, as indicated in the following Table 6 after their fasting for 18 hours. Thirty five hours later than said administration, the rats so administered were dissected to remove therefrom the stomachs each of which was then fixed, cut along the greater curvature thereof and visually observed to find whether ulcers were formed therein. Further, 50% gastric ulcer-inducing doses (UD50) were determined.

The test system of another series is Gastric mucous membrane. Described as above. The settings on record: oral, 3.0 mg/kg; fasted 18 hours; groups of eight rats. The protocol:
as §1, §2

The subject of series [3] is threshold of pain of the paws. In words: Randall-Selitto method using rats (yeast-induced inflammatory pain). The settings on record: oral; for ED50: Rattus norvegicus, analgesic effect; for Inhibition rate: area under the curve of pain threshold vs control. The protocol: Pharmacological Experiment 2 (Randall-Selitto method using rats as subjects)
There were used groups each consisting of seven Wistar-strain male rats each weighing about 140 g. The rats were hypodermically injected with 0.1 ml of 20% yeast suspension at the paw of their right hind leg to induce inflammatory edema, and the threshold of pain of the paws was measured with the lapse of time in accordance with the Randall-Selitto method. Three hours after the reaction had been induced, the dose of the test compounds was orally administered to each rat as shown in the following Table 5.
In Table 5, the results were expressed in terms of inhibition rates and effective amounts (ED50) for the tested groups with respect to those of the control group (to which the compound was not orally administered) after the area under the curve had been measured subsequently to the administration.

Setting [4] is: 1.0 mg/kg once a day for 7 days.
The mark [5] stands for this setting: read-out: Inhibition rate (edema inhibition rate).

Read-outs that look alike come from different tables or passages of the source.

A word on the ED50: it is the midpoint of the dose-response relation.

In the case of `CC(C(=O)O)c1ccc(C[C@@H]2CCCC[C@H]2O)c(Cl)c1` (relative stereo) [Example 24, 2-[3-chloro-4-(trans-2-hydroxycyclohexane-1-ylmethyl)phenyl]propionic acid], the “Inhibition rate (swelling of hind paws)” value is 34.2% in the series on adjuvant arthritis (0.1 mg/kg once a day for 7 days), 49.9% in the series with adjuvant arthritis (0.3 mg/kg once a day for 7 days) and 65.9% in the series with adjuvant arthritis (setting [4]). In addition, in series [1] (setting [5]), the inhibition in vivo at 0.2 mg/kg came out at 33.4%. Besides, the inhibition in vivo at 0.5 mg/kg in series [1] (setting [5]) came out at 47.1%.
With `CC(C(=O)O)c1ccc(C[C@H]2CCCC[C@@H]2O)c(F)c1` (relative stereo) [Example 31], the inhibition in vivo at 0.5 mg/kg in series [1] (setting [5]) amounted to 54%.
The same measure, in the same setting: with `CC(C(=O)O)c1ccc(C[C@H]2CCCC[C@H]2O)c(F)c1` (relative stereo) [Example 32] the figure was 37.9%.
Turning to `CC(C(=O)O)c1ccc(C[C@@H]2CCC[C@H]2O)c(Cl)c1` (relative stereo) [Example 40, 2-[3-chloro-4-(trans-2-hydroxycyclopentane-1-ylmethyl)phenyl] propionic acid], in series [1] (setting [5]), the inhibition in vivo at 0.2 mg/kg amounted to 34.5% and the inhibition in vivo at 0.5 mg/kg was 56.3%.
As for `CC(C(=O)O)c1ccc(C[C@H]2CCC[C@@H]2O)c(F)c1` (relative stereo) [Example 46], the inhibition in vivo at 0.5 mg/kg in series [1] (setting [5]) turned out to be 60.5%.
Regarding `CC(C(=O)O)c1ccc(C[C@H]2CCC[C@H]2O)c(F)c1` (relative stereo) [Example 47], the inhibition in vivo at 0.5 mg/kg in series [1] (setting [5]) was determined as 45.6%.
Consider `CC(C(=O)O)c1ccc(C[C@@H]2CCCC[C@H]2O)cc1` (relative stereo) [compound 5, 2[4-(trans-2-hydroxycyclohexane-1-ylmethyl)phenyl]propionic acid, reference compound], for which the “Inhibition rate (swelling of hind paws)” value with adjuvant arthritis (3.0 mg/kg once a day for 7 days) was determined as 42.7%; with adjuvant arthritis (10.0 mg/kg once a day for 7 days), 56.4%. Besides, in series [1] (setting [5]), the inhibition in vivo at 0.5 mg/kg was 33.7%.
As for `CC(C(=O)O)c1ccc(C[C@@H]2CCC[C@H]2O)cc1` (relative stereo) [compound 6, 2[4-(trans-2-hydroxycyclopentane-1-ylmethyl)phenyl]propionic acid, reference compound], in series [1] (setting [5]), the inhibition in vivo at 0.2 mg/kg is 22.5% and the inhibition in vivo at 0.5 mg/kg stood at 38.5%.
For `CC(C(=O)O)c1ccc(CC2CCCCC2=O)c(Cl)c1` (stereo not drawn) [Example 2, 2-[3-chloro-4-(2-oxocyclohexane-1-ylmethyl)phenyl]propionic acid], the figures for the ED50 (with adjuvant arthritis; in series [1]; in series [3]) were 0.5 mg/kg, 0.6 mg/kg and 0.3 mg/kg, respectively. Besides, in the series on adjuvant arthritis (setting [4]), the “Inhibition rate (swelling of hind paws)” value is 62.1%. Moreover, the inhibition in vivo at 0.2 mg/kg in series [1] (setting [5]) came out at 21.8%. In series [1] (setting [5]), the inhibition in vivo at 0.5 mg/kg is 49.5%. The TD50 at 35 h in series [2] (po) amounted to 5.6 mg/kg. In addition, the “Ulcer formation (incidence)” value in the series on Gastric mucous membrane is recorded as 2/8. For the same compound, the results for the Inhibition rate in series [3] (0.3 mg/kg) and in series [3] (1.0 mg/kg) were 54.3% and 75.1%, respectively.
`CC(C(=O)O)c1ccc(CC2CCCC2=O)c(Cl)c1` (stereo not drawn) [Example 3, 2-[3-chloro-4-(2-oxocyclopentane-1-ylmethyl)phenyl]propionic acid]: in series [1] (setting [5]), the inhibition in vivo at 0.2 mg/kg was 20.2% and the inhibition in vivo at 0.5 mg/kg was found to be 48.5%. Besides, the Inhibition rate in series [3] (0.3 mg/kg) was determined as 44.7%. Besides, the Inhibition rate in series [3] (1.0 mg/kg) amounted to 69.3%.
As to `CC(C(=O)O)c1ccc(CC2CCCC2=O)c(F)c1` (stereo not drawn) [Example 6], in series [1] (setting [5]), the inhibition in vivo at 0.5 mg/kg was found to be 52.2%. Moreover, the “Ulcer formation (incidence)” value in the series on Gastric mucous membrane is listed as 1/8.
For the compound `CC(C(=O)O)c1ccc(CC2CCCCC2=O)c(F)c1` (stereo not drawn) [Example 10], in series [1] (setting [5]), the inhibition in vivo at 0.5 mg/kg was 50.2%.
As for `CC(C(=O)O)c1ccc(C[C@H]2CCCC[C@@H]2O)c(Cl)c1` (stereo partly drawn) [Example 28, 2-[3-chloro-4-(trans-(1R, 2S)-2-hydroxycyclohexane-1-yl-methyl)phenyl]propionic acid], the inhibition in vivo at 0.2 mg/kg in series [1] (setting [5]) was found to be 38.3%. Besides, the inhibition in vivo at 0.5 mg/kg in series [1] (setting [5]) was found to be 54.8%. In addition, the Inhibition rate is reported as 62.5% in series [3] (0.3 mg/kg) and 80.9% in series [3] (1.0 mg/kg).
Take `CC(C(=O)O)c1ccc(C[C@H]2CCC[C@@H]2O)c(Cl)c1` (stereo partly drawn) [Example 44, 2-[3-chloro-4-(trans-(1R, 2S)-2-hydroxycyclopentane-1-ylmethyl)phenyl]propionic acid]: in series [1] (setting [5]), the inhibition in vivo at 0.2 mg/kg was 42.2% and the inhibition in vivo at 0.5 mg/kg turned out to be 65.5%.
Turning to `CC(C(=O)O)c1ccc(CC2CCCC2=O)cc1` (stereo not drawn) [compound 1, Loxoprofen, reference compound], the ED50 in the series with adjuvant arthritis was found to be 8.1 mg/kg; in series [1] it was 1.5 mg/kg; in series [3], 1.5 mg/kg. For the same compound, in the series on adjuvant arthritis (setting [4]), the “Inhibition rate (swelling of hind paws)” value worked out at 1.3%. The inhibition in vivo at 0.5 mg/kg in series [1] (setting [5]) was 23.9%. In addition, in series [2] (oral, fasted 18 hours, read-out: UD50 (50% gastric ulcer-inducing dose)), the TD50 at 35 h is 4.7 mg/kg. Further, in the series with Gastric mucous membrane, the “Ulcer formation (incidence)” value is given as 4/8. Moreover, the Inhibition rate in series [3] (1.0 mg/kg) was 49.7%.
As to `CC(C(=O)O)c1ccc(CC2CCCCC2=O)cc1` (stereo not drawn) [compound 2, 2[4-(2-oxocyclohexane-1-ylmethyl)phenyl]propionic acid, reference compound], in series [1] (setting [5]), the inhibition in vivo at 0.5 mg/kg amounted to 27.1%. The Inhibition rate in series [3] (1.0 mg/kg) is on record as 44.3%.
In the same order, the values of `CC(C(=O)O)c1ccc(CC2CCCC2)c(Cl)c1` (stereo not drawn) [compound 3, 2(3-chloro-4-cyclopentylmethylphenyl)propionic acid, reference compound] are 10.2% and 18.4%.
As to `COc1ccc2c(c1)c(CC(=O)O)c(C)n2C(=O)c1ccc(Cl)cc1` [compound 4, Indomethacin, reference compound], in the series with adjuvant arthritis (setting [4]), the “Inhibition rate (swelling of hind paws)” value was determined as 58.7%. In addition, the inhibition in vivo at 5 mg/kg in series [1] (po, read-out: Inhibition rate (edema inhibition rate)) came to 51.3%. This compound also came in with an Inhibition rate in series [3] (5.0 mg/kg) of 76.3%.

Values taken from patent US5434292A, “Phenylalkanoic acid derivatives, process for producing the same and process for separating optical isomers thereof” (Hisamitsu Pharmaceutical Co., Inc., priority 1994, dated 1995).
